Converted amounts (≈) assume the structure as drawn.
Assays:
[1] = tested on: Escherichia coli EC-1; experiment: MIC determination, E. coli EC-1; assay type: cell-based; settings: EC1, EC-1: VOGEL, * = arithmetic mean of 2-6 MIC determinations, read-out: MIC (ug/mL) E. coli EC-1
Summary of the method: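 Minimum inhibitory concentration against Escherichia coli EC-1 was determined in vitro by dilution susceptibility testing under CLSI M7-A7 and M100-S18 guidelines.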

[2] = molecular target: T1, Pseudomonas aeruginosa LpxC enzyme (Pseudomonas aeruginosa, UniProt P47205); experiment: IC50 assay, LpxC enzyme from P. aeruginosa; assay type: biochemical; settings: 0.5 nM enzyme, 25° C., pH 8.0, 20 min; ** = average of 2-8 assays
T1 construct: made in house; host or cells: E. coli
T1 sequence (P47205 1-303): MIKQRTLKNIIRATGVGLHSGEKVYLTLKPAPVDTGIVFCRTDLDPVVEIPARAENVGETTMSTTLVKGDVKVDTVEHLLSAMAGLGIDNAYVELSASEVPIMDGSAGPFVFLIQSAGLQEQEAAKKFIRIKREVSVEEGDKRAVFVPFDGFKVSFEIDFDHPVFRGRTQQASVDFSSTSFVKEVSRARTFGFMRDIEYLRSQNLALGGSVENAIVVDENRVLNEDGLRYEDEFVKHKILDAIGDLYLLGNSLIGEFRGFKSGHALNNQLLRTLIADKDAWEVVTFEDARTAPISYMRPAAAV
Summary of the method: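 P. aeruginosa LpxC (0.5 nM, expressed in E. coli) reacted with 0.5 uM ³H-acetyl-labelled UDP-3-O-(R-3-hydroxydecanoyl)-GlcNAc in 50 mM sodium phosphate pH 8.0 with 1 mg/ml BSA at 25 °C for 20 min. Charcoal stopped the reaction, and filtrate radioactivity was counted by scintillation after no-enzyme background subtraction.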

[3] = tested on: Acinetobacter baumanii/haemolyticus; experiment: MIC determination, A. baumanii/haemolyticus; assay type: cell-based; settings: Acinetobacter baumannii; multidrug-resistant clinical isolate; * = arithmetic mean of 2-6 MIC determinations; read-out: MIC (ug/mL) A. baumanii/haemolyticus
Summary of the method: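 MICs were determined by CLSI broth dilution (M7-A7, M100-S18) against a multidrug-resistant clinical isolate of Acinetobacter baumanii/haemolyticus.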

[4] = tested on: P. aeruginosa UI-18; experiment: MIC determination, P. aeruginosa UI-18; assay type: cell-based; settings: Pseudomonas aeruginosa, UI18; wild-type; * = arithmetic mean of 2-6 MIC determinations; read-out: MIC (ug/mL) P. aeruginosa UI-18
Summary of the method: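 MIC by broth dilution following CLSI M7-A7 and M100-S18 guidelines, tested against wild-type P. aeruginosa UI-18.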

[5] = tested on: P. aeruginosa PAO280; experiment: MIC determination, P. aeruginosa PAO280; assay type: cell-based; settings: Pseudomonas aeruginosa, PAO280, read-out: MIC (ug/mL) P. aeruginosa PAO280
Summary of the method: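 Broth dilution MIC per CLSI M7-A7/M100-S18 guidelines. Strain PAO280 lacks efflux pumps MexAB-oprM, MexXY and MexZ.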

[6] = tested on: Enterobacter aerogenes; experiment: MIC determination, E. aerogenes; assay type: cell-based; settings: Klebsiella aerogenes; quinolone-resistant, ESBL-expressing clinical isolate; * = arithmetic mean of 2-6 MIC determinations; read-out: MIC (ug/mL) E. aerogenes
Summary of the method: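 Clinical E. aerogenes isolate, quinolone-resistant and ESBL-expressing. MIC measured in vitro by dilution testing according to CLSI guidelines (M7-A7, M100-S18).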

[7] = tested on: Serratia marcescens; experiment: MIC determination, S. marcescens; assay type: cell-based; settings: multidrug-resistant clinical isolate, * = arithmetic mean of 2-6 MIC determinations, read-out: MIC (ug/mL) S. marcescens
Protocol: MIC determinations: The in vitro antibacterial activity of compounds described in the Examples was evaluated by minimum inhibitory concentration (MIC) testing according to Clinical and Laboratory Standards Institute (CLSI, formerly NCCLS) guidelines. See: Clinical and Laboratory Standards Institute. Methods for Dilution Antimicrobial Susceptibility Tests for Bacteria that Grow Aerobically; Approved Standard-Seventh Edition. CLSI document M7-A7 [ISBN 1-56238-587-9]. Clinical and Laboratory Standards Institute, 940 West Valley Road, Suite 1400, Wayne, Pa. 19087-1898 USA, 2006; also Clinical and Laboratory Standards Institute. Performance Standards for Antimicrobial Susceptibility Testing; Eighteenth Informational Supplement. CLSI document M100-S18 [ISBN1-56238-653-0]. Clinical and Laboratory Standards Institute.
The following bacterial strains were used:
Serratia marcescens: Multidrug-resistant clinical isolate.

[8] = tested on: Klebsiella pneumoniae; experiment: MIC determination, K. pneumoniae; assay type: cell-based; settings: ciprofloxacin-resistant, ESBL-expressing clinical isolate, * = arithmetic mean of 2-6 MIC determinations, read-out: MIC (ug/mL) K. pneumoniae
Summary of the method: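 MIC determined by broth dilution per CLSI M7-A7 and M100-S18 guidelines. Strain: ciprofloxacin-resistant, ESBL-expressing clinical isolate of K. pneumoniae.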

[9] = tested on: Staphylococcus aureus ATCC 29213; experiment: MIC determination, S. aureus ATCC 29213; assay type: cell-based; settings: ATCC29213, CLSI quality control reference strain, * = arithmetic mean of 2-6 MIC determinations, read-out: MIC (ug/mL) S. aureus ATCC 29213
Summary of the method: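 MIC was measured by dilution susceptibility testing following CLSI guidelines (M7-A7; M100-S18). The test organism is the CLSI quality-control reference strain.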

| Compound | MIC [1] [µg/mL] | IC50 [2] [µM] | MIC [3] [µg/mL] | MIC [4] [µg/mL] | MIC [5] [µg/mL] | MIC [6] [µg/mL] | MIC [7] [µg/mL] | MIC [8] [µg/mL] | MIC [9] [µg/mL] | melting point [°C] |
| --- | --- | --- | --- | --- | --- | --- | --- | --- | --- | --- |
| Cn1ccnc1[C@H](O)[C@](C)(OCc1ccc(-c2ccccc2)cc1)C(=O)NO [Example 10, (2S,3S)-2-(biphenyl-4-ylmethoxy)-N,3-dihydroxy-2-methyl-3-(1-methyl-1H-imidazol-2-yl)propanamide] | 48 (≈ 126 µM) | 0.00246 | 64 (≈ 168 µM) | 33 (≈ 86.5 µM) | 0.19 (≈ 0.498 µM) | > 64 | 64 (≈ 168 µM) | 48 (≈ 126 µM) | 48 (≈ 126 µM) |  |
| C[C@@](OCc1ccc(-c2ccccc2)cc1)(C(=O)NO)[C@@H](O)c1ccccc1 [Example 11, (2S,3S)-2-(biphenyl-4-ylmethoxy)-N,3-dihydroxy-2-methyl-3-phenylpropanamide] | > 64 | 0.00509 | > 64 | > 64 | 8 (≈ 21.2 µM) | > 64 | > 64 | > 64 | 32 (≈ 84.8 µM) |  |
| C[C@@](OCc1ccc(-c2ccccc2)cc1)(C(=O)NO)[C@@H](O)c1cccnc1 [Example 12, (2S,3S)-2-(biphenyl-4-ylmethoxy)-N,3-dihydroxy-2-methyl-3-pyridin-3-ylpropanamide] | > 64 | 0.00181 | > 64 | 32 (≈ 84.6 µM) | 0.5 (≈ 1.32 µM) | > 64 | > 64 | > 64 | 32 (≈ 84.6 µM) |  |
| O=C(NO)C(CO)(OCc1ccc(-c2ccccc2)cc1)C(F)(F)F (stereo not shown) [Example 50, 2-(biphenyl-4-ylmethoxy)-3,3,3-trifluoro-N-hydroxy-2-(hydroxymethyl)propanamide] | > 64 | 0.0147 | > 64 | 48 (≈ 135 µM) | 1 (≈ 2.81 µM) | > 64 | > 64 | > 64 | > 64 |  |
| CC(OCc1ccc(-c2ccccc2)cc1)C(=O)NO (stereo not shown) [Example 54, 2-(biphenyl-4-ylmethoxy)-N-hydroxypropanamide] | > 64 | 0.406 | > 64 | > 64 | 32 (≈ 118 µM) | > 64 | > 64 | > 64 | > 64 | 120 to 123 |
| COCC(CO)(OCc1ccc(-c2ccccc2)cc1)C(=O)NO (stereo not shown) [Example 56, 2-(biphenyl-4-ylmethoxy)-N,3-dihydroxy-2-(methoxymethyl)propanamide] | > 64 | 0.0222 | > 64 | > 64 | 4 (≈ 12.1 µM) | > 64 | > 64 | > 64 | > 64 |  |
| O=C(NO)C1(OCc2ccc(-c3ccccc3)cc2)CCOCC1 [Example 58, 4-(biphenyl-4-ylmethoxy)-N-hydroxytetrahydro-2H-pyran-4-carboxamide] | > 64 | 0.04 | > 64 | > 64 | 4 (≈ 12.2 µM) | > 64 | > 64 | > 64 | > 64 |  |
| O=C(NO)C(CO)(CO)OCc1ccc(-c2ccccc2)cc1 [Example 91, 2-(biphenyl-4-ylmethoxy)-N,3-dihydroxy-2-(hydroxymethyl)propanamide] | > 64 | 0.0108 | > 64 | 43 (≈ 136 µM) | 1.25 (≈ 3.94 µM) | > 64 | > 64 | > 64 | > 64 |  |
| O=C(NO)C(CO)(CCO)OCc1ccc(-c2ccccc2)cc1 (stereo not shown) [Example 92] | > 64 | 0.0134 | > 64 | > 64 | 2 (≈ 6.04 µM) | > 64 | > 64 | > 64 | > 64 |  |

From patent US9340493B2, “Hydroxamic acid derivatives useful as antibacterial agents” (Pfizer Inc., priority 2008, dated 2016)
